Test results: patent publication US6399316B1, “PACAP receptor protein, method for preparing said protein, and use thereof” (Takeda Chemical Industries, Ltd., priority 1994, dated 2002)

What was measured:
[1] = target: T1, human PACAP receptor protein (Homo sapiens, UniProt P41586); experiment: Intracellular cyclic AMP of human PACAP receptor protein-expressed CHO-K1 cells; assay type: cell-based; settings: 37° C., 30 minutes, 0.2 mM 3-isobutyl-1-methylxanthine, FIG. 48
T1 construct: expressed in transfected cells; host or cells: CHO-K1 cells (ICN), pTS849 (pRc/CMV), G-418 selected
T1 sequence (P41586 21-468): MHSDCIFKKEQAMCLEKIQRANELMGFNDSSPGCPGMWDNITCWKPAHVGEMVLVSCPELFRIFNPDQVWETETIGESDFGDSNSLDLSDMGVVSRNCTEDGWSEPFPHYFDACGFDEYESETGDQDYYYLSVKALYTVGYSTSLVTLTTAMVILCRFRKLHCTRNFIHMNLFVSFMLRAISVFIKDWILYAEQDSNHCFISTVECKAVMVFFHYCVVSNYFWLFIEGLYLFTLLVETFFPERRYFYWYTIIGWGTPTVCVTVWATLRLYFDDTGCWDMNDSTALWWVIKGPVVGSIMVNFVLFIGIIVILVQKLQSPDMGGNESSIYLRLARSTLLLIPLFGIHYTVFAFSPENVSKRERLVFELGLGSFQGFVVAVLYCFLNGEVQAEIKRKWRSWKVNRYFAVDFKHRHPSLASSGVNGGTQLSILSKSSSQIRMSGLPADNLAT
Description: After washing twice with Hank's buffer containing the culture buffer, 10 mM HEPES and 0.05% BSA, the CHO-K1 cells were cultivated in the above-mentioned buffer supplemented with 0.2 mM 3-isobutyl-1-methylxanthine at 37° C. for 60 minutes. […] After absorption of the buffer, the cells were washed twice with the culture buffer. Then, cAMP was extracted from the cells with 20% perchloric acid. After transfer to a 1.5-ml Eppendorf tube, the extract was centrifuged with a Tomy microcentrifuge at 12,000 rpm for 5 minutes, and the supernatant was neutralized with 1.5 N KOH/60 mM HEPES to prepare a cell eluted solution. The concentration of cyclic AMP was determined by the acetylation method of a cAMP assay system (Amersham). Under these determination conditions, when nothing was added, the amount of intracellular CAMP was 0.7 pmole/well.

[2] = target: T1, human PACAP receptor protein; experiment: Competitive inhibition experiment, membrane fraction of human PACAP receptor-expressed CHO-K1 cells; assay type: binding; settings: FIG. 47
Description: (§1) The test sample (membrane fraction or solubilized membrane protein fraction) was appropriately diluted with buffer D (20 mM Tris, 5 mM magnesium chloride, 0.1% BSA and 0.05% digitonin, pH 7.4). […] To 0.1 ml of this reaction solution, 1.5 ml of buffer E (0.1% BSA, 0.05% CHAPS, 20 mM Tris and 5 mM magnesium chloride, pH 7.4) cooled with ice was added, and immediately, the mixed solution is filtered through a glass fiber filter. […] Results of the saturation binding experiment were subjected to Scatchard plot analysis to determine the dissociation constant and the maximum binding.

PACAP receptor = settings: unlabeled peptide, tissue membrane fraction; cited from earlier work
[3] = target: T2, Bovine PACAP receptor protein (Bos taurus, UniProt Q29627); experiment: Intracellular cyclic AMP production of bovine PACAP receptor cDNA-expressed CHO cells; assay type: cell-based; settings: 37° C., 30 minutes, 0.2 mM 3-isobutyl-1-methylxanthine, FIG. 36
T2 construct: The complete primary structure of bovine PACAP receptor protein based on pBPR-T was deduced; expressed in transfected cells; host or cells: CHO cells, pBPR-T in pRc/CMV, G-418 selected
T2 sequence (Q29627 38-513): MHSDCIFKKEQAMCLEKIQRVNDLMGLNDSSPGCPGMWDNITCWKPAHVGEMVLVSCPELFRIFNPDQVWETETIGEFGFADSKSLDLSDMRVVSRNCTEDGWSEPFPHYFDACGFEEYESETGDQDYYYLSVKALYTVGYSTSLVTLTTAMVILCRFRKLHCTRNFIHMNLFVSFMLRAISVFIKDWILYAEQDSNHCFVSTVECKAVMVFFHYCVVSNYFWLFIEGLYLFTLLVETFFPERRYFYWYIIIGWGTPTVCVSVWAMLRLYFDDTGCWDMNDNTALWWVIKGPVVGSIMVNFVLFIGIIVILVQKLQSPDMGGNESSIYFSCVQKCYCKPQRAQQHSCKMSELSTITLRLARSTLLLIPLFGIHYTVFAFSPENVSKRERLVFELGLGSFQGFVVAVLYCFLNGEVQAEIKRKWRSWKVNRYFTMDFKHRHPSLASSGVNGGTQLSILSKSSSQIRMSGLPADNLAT
Description: Three days after the transformants (CHO cells) were plated on a 24-well plate, the cells were washed with Hank's buffer (composition: 8 g/l NaCl, 0.4 g/l KCl, 0.06 g/l Na2HPO4, 1.0 g/l glucose, 0.2 g/l MgSO4, 0.14 g/l CaCl2 and 0.35 g/l NaHCO3) supplemented with 0.05% BSA, and treated in the presence of 0.2 mM 3-isobutyl-1-methylxanthine at 37° C. for 1 hour. […] After the cells were washed with the above-mentioned Hank's buffer supplemented with 0.05% BSA, intracellular cyclic AMP was extracted by the use of 500 μl of Hank's buffer and 100 μl of 20% perchloric acid, and neutralized with 1.5 M KOH. The amount of cyclic AMP was assayed with a cAMP oxygen immunoassay system (BIOTRAK Amersham).

[4] = target: T3, purified bovine PACAP receptor protein (Bos taurus, UniProt Q29627); experiment: Competitive binding experiment for the purified PACAP receptor protein with [125I]PACAP27; settings: vs 100 pM [125I]PACAP27, FIG. 31
T3 construct: from tissue; host or cells: bovine cerebrum
T3 sequence (Q29627 38-513): T2 sequence (Q29627 38-513)
Description: as §1
Analysis results obtained by polyacrylamide electrophoresis for the final purified sample in the presence of sodium dodecylsulfate are shown in FIG. 28. […] This protein having a molecular weight of about 57,000 is the PACAP receptor protein occurring in the bovine cerebrums.

[5] = target: T2, Bovine PACAP receptor protein; experiment: Intracellular inositol phosphate of bovine PACAP receptor cDNA-expressed CHO cells; assay type: cell-based; settings: 37° C., 20 minutes, FIG. 37
Description: The pathway of signal transmission of inositol phosphate well known as the pathway of signal transmission together with cyclic AMP was examined. […] One hundred microliters of 20% perchloric acid was added thereto to stop the reaction, and intracellular inositol phosphate was extracted. The extract was neutralized with 1.5 M KOH. All inositol phosphate was separated from free inositol by the use of ion exchange chromatography (AGI-X8, Bio RAD). Thereafter, inositol phosphate was eluted with 1 M ammonium formate/0.1 M formic acid, and the amount of inositol phosphate was measured with a scintillation counter.

[6] = target: T2, Bovine PACAP receptor protein; experiment: Competitive binding experiment, membrane fraction of bovine PACAP receptor cDNA (pBPR-T)-expressed CHO cells; settings: 100 pM [125I]-PACAP27, 25° C., 75 minutes, FIG. 35
Description: The transformants (CHO cells) cultivated for 3 days after subculture were separated using 0.2 mM EDTA/phosphate buffer, and suspended in 10 mM sodium carbonate buffer supplemented with 1 mM EDTA, 0.5 mM phenylmethylsulfonyl fluoride (PMSA), 20 μg/ml leupeptin, 4 μg/ml E-64 and 1 μg/ml pepstatin. The suspended cells were disrupted with a Polytron homogenizer (Kinematica). The disrupted product was centrifuged with a high speed cooling centrifuge (CR26H, Roter RR18, Hitachi, Ltd.) at 3,000 rpm for 10 minutes to obtain a supernatant. The resulting supernatant was further ultracentrifuged with an ultracentrifuge (SCP70H, Roter RPZ35T, Hitachi, Ltd.) at 30,000 rpm for 60 minutes to obtain pellets. The resulting pellets were suspended in a buffer [20 mM Tris-HCl (pH 7.4), 0.25 M sucrose, 2 mM EDTa, 0.5 mM PMSF, 20 μg/ml leupeptin and 1 μg/ml pepstatin] to prepare a membrane fraction suspension.
Bound ligands were separated from free ligands through a glass fiber filter. […] The binding was examined with a a γ-ray counter. The dissociation constant and the maximum binding were examined by Scatchard plot analysis (FIG. 34).

[7] = target: T4, rat PACAP receptor protein Type I-B (pRPR4-B) (Rattus norvegicus, UniProt P32215); experiment: Competitive binding with [125I]-PACAP27, membrane fraction of pRPR4-B-introduced CHO cells; settings: 100 pM [125I]-PACAP27, 25° C., 1 hour, FIG. 40 (B)
T4 construct: two kinds of complete primary structures of rat PACAP receptor protein were deduced; expressed in transfected cells; host or cells: CHO cells, pRPR4-B (pRc/CMV); clone B17 for cAMP
T4 sequence (P32215 20-495 isoform P32215-2 limits assumed): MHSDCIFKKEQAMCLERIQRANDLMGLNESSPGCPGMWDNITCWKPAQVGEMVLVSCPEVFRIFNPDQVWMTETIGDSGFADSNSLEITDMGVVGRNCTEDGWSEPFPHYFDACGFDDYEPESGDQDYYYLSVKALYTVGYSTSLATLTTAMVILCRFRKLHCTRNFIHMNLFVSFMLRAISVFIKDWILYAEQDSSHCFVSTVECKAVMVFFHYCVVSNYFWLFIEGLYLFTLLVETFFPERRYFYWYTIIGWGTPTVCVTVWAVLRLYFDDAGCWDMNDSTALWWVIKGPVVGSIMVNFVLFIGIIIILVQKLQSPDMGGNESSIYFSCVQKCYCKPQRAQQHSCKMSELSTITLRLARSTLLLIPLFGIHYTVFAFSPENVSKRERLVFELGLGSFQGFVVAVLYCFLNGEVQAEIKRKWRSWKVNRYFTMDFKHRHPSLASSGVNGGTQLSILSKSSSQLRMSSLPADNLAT
Description: (§2) The pRPR3-A-introduced and pRPR4-B-introduced CHO cells obtained in (2) described above were each disrupted in sodium carbonate buffer containing 1 mM EDTA, 0.5 mM PMSF, 20 μg/ml leupeptin, 4 μg/ml E-64 and 1 μg/ml pepstatin with a Polytron homogenizer (Kinematica) to prepare membrane fractions. Using the membrane fractions, complex binding experiments were conducted. For each of the membrane fractions of the pRPR3-A-introduced CHO cells and the pRPR4-B-introduced CHO cells, each of 10 μg and 15 μg (converted to a protein amount) thereof was ligated with. […] The reaction was conducted at 25° C. for 1 hour, and bound ligands were separated from free ligands by filtration through a filter. […] The amount of bound ligands was measured with a γ-counter.

[8] = target: T5, rat PACAP receptor protein Type I-A (pRPR3-A) (Rattus norvegicus, UniProt P32215); experiment: Intracellular cyclic AMP of rat PACAP receptor cDNA-introduced CHO cells, strain A12; assay type: cell-based; settings: CHO strain A12, 37° C., 40 minutes, 0.5 mM IBMX, FIG. 43
T5 construct: pRPACAPR46 and pRPACAPR5 were recombined at the BamHI site to prepare pRPACAPR46-5 having a complete translation frame; expressed in transfected cells; host or cells: CHO cells, pRPR3-A (pRc/CMV); clone A12 for cAMP
T5 sequence (P32215 20-467 isoform P32215-5 limits assumed): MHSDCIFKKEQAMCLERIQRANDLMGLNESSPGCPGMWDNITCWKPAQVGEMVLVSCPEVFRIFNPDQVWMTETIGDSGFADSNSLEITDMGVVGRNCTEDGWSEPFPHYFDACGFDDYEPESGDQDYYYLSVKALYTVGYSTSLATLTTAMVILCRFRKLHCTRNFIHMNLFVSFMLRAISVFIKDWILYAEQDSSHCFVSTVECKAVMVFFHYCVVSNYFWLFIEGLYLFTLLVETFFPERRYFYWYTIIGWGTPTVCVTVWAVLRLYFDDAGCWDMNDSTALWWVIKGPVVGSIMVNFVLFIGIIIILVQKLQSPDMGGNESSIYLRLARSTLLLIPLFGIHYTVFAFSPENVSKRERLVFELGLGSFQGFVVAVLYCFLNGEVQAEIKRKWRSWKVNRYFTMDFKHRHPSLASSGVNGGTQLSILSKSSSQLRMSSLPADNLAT
Description: (§3) Each 48-well plate for tissue culture was inoculated with each of the cell strains. at a density of 1.0×10^5 cells/well, followed by cultivation for 3 days. The plate was washed twice with Ham's F12 medium supplemented with 0.1% BSA and 0.5 mM IBMX, and 500 μl/well of the same medium was added thereto. […] The supernatant was removed, and extraction was conducted with 100% cold ethanol. The extract was evaporated to dryness with a centrifugal freeze dryer, and redissolved in the buffer attached to an EIA kit for assaying cyclic AMP (Amersham). Then, the amount of cyclic AMP was assayed according to the formulation of the kit.

[9] = target: T4, rat PACAP receptor protein Type I-B (pRPR4-B); experiment: Intracellular cyclic AMP of rat PACAP receptor cDNA-introduced CHO cells, strain B17; assay type: cell-based; settings: CHO strain B17, 37° C., 40 minutes, 0.5 mM IBMX, FIG. 43
Description: as §3

[10] = target: T5, rat PACAP receptor protein Type I-A (pRPR3-A); experiment: Competitive binding with [125I]-PACAP27, membrane fraction of pRPR3-A-introduced CHO cells; settings: 100 pM [125I]-PACAP27, 25° C., 1 hour, FIG. 40 (A)
Description: as §2

Substance	concentration of intracellular cAMP [1]	competition with [125I]-PACAP27 [2]	inhibition of [125I]PACAP27 binding to the membrane fraction (PACAP receptor)	concentration of intracellular cyclic AMP [3]	reaction with purified PACAP receptor protein in competitive binding experiment [4]	concentration of inositol phosphate [5]	reactivity (competition with [125I]-PACAP27) [6]	competition with [125I]-PACAP27 [7]	production of intracellular cyclic AMP [8]	weakness relative to PACAP27 in competitive inhibition [2]	production of intracellular cyclic AMP [9]	competition with [125I]-PACAP27 [10]
PACAP27	increased depending on the concentrations	competed	inhibited	increased depending on the concentrations	reacting	increased depending on the concentrations	high reactivity					
PACAP38: pituitary adenylate cyclase activating polypeptide consisting of 38 amino acid residues, SEQ ID NO: 46-NH2			inhibited									
Vasoactive intestinal peptide [VIP]	little raised		not inhibited		not reacting		low in reactivity	competition was observed only at a concentration much higher than that of PACAP27	a concentration much higher than that of the PACAPs was required	1,000 times	a concentration much higher than that of the PACAPs was required	competition was observed only at a concentration much higher than that of PACAP27
